Laboratory results as given in patent US20020042423A1, “METHODS FOR IDENTIFYING COMPOUNDS THAT BIND TO HLA MOLECULES AND USE OF SUCH COMPOUNDS AS HLA-AGONISTS OR ANTAGONISTS” (priority 1998, published 2002).
Entries after “also recorded” stand apart in the source; their conditions may differ.

Tests used:
HLA-DR1301 [1] = target: T1, HLA-DR1301 (Homo sapiens, UniProt P01903+P01911, A100E/A169T/K41T/L162R/M171V/P40S/Q125H/Q178H/Q39Y/Q99D/R42S/S66N/T262R/W38E/Y61H); assay: Competitive peptide-binding assay with biotinylated MBP peptide; conditions: analog at 6.25 μM to 400 μM, OD at 450 nm
T1 construct: expressed in transfected cells; host or cells: DAP.3 murine fibroblasts (gift of C. Hurley and R. Rosen-Bronson)
Experimental: 1.5×10^6 HLA-DR-transfected Dap.3 cells were washed in Hanks' Balanced Salt Solution, fixed with 1% paraformaldehyde, washed with RPMI medium and PBS, and resuspended in binding buffer. Biotinylated MBP peptide was added at 200 μg/ml (for MBP 152-165) or 1 μg/ml (for MBP 83-97). BSA was added at 1%. The blocking compound (analogue 6) was added at multiple concentrations ranging from 6.25 μM to 400 μM and incubated overnight in a shaking water bath at 37° C. The samples were then washed and lysed with 100 μl lysis buffer containing 1% nonidet-P40 on ice for 40 min. After centrifugation, the supernatant containing the cell membrane fragments was […] to a 96-well plate pre-coated with the L243 monoclonal antibody that binds to all HLA-DR molecules. The lysis buffer was neutralized with 100 μl n-octyl-β-D-glucopyranoside overnight at 4° C. The samples were then washed and incubated with streptavidin-peroxidase for 1 hour at room temperature. […] OD was measured by an ELISA reader at 450 nm. Competition of the compound for the MBP peptide was calculated according to the following formula: [formula]
This assay evaluates the binding of biotinylated MBP peptide to HLA-DR1301 in the presence of different concentrations of the analog (analog 6 of lead compound). The amounts of MBP peptide bound (label) to the HLA molecule are then quantitated based on the amount of biotin detected.

HLA-DR1301 [2] = target: T1, HLA-DR1301; assay: IL-2 secretion functional blocking assay, DR1301-restricted TCR transfectants with MBP 152-165; type: cell-based; conditions: for specificity for DR-1301 as compared with DR-1501, by inhibitory effect on IL-2 secretion: DR1301- versus DR1501-restricted TCR transfectants; for inhibition of IL-2 secretion / blocking of antigen presentation by DR-1301: DR1301 and TCR transfectants, MBP peptide, IL-2 in supernatant by ELISA
Source text: The murine T-cell hybridoma cell line BW58α-β- (a gift of […] and W. Born) was used for transfection of human TCRα and β cDNA isolated from patients with multiple sclerosis (Hastings, 1996). The parental DAP.3 murine fibroblast cell line was used for transfection of DR(α,β1*1301) or DR((α,β*1501) as previously described (a gift of C. Hurley and R. Rosen-Bronson)) ([Hurley, 1995), [Posch, 1995), [Rosen-Bronson, 1991). All cells lines were maintained in DMEM supplemented with 10% fetal calf serum, 50 U/ml penicillin G, 50 μg/ml streptomycin, 1 mM sodium pyruvate, 2 mM glutamine, and 10 mM HEPES buffer (all Gibco/BRL, Gaithersburg, Md.). TCR- and HLA-transfectants were expanded using 1 mg/ml G418 (Gibco/BRL), or 1 mg/ml G418 and 1 mg/ml hygromycin (Calbiochem, San Diego, Calif.), respectively. Cells were washed and resuspended in DMEM complete medium without antibodies. 10^5 cells of the TCR-transfected or untransfected (control) BW58α-β- cells and an equal number of DR-transfected or untransfected (control) Dap.3 cells were incubated with MBP 152-165, or MBP 83-97 and various concentrations of compound, using an U-bottom 96 well plate (Costar). Cell culture supernatants were harvested after […] and stored at -70° C. until use. IL-2 cytokine concentrations (pg/ml) of supernatants were measured by ELISA (Genzyme, Cambridge, Mass.) according to the manufacturer's instructions. The activity of compounds identified by MCDOCK in functional assays that measure inhibition of IL-2 secretion by DR1301 and DR1501-restricted TCR transfectants using compound #105 and several other compounds was evaluated. The results obtained with compound #105 are contained in FIG. 3. In the figure t1 and t2 represent dose-response curves generated in two different experiments. TCR and DR transfectants were incubated for 36 hours with or without compound and the appropriate MBP peptide. IL-2 concentration of the supernatants was then analyzed by ELISA.

HLA-DR1501 = target: T2, HLA-DR1501 (Homo sapiens, UniProt P01903+P01911); assay: IL-2 secretion functional blocking assay, DR1501-restricted TCR transfectants with MBP 83-97; type: cell-based; conditions: DR1501 and TCR transfectants, MBP peptide, IL-2 in supernatant by ELISA
T2 construct: expressed in transfected cells; host or cells: DAP.3 murine fibroblasts (gift of C. Hurley and R. Rosen-Bronson)
Source text: The murine T-cell hybridoma cell line BW58α-β- (a gift of B. Malissen and W. Born) was used for transfection of human TCRα and β cDNA isolated from patients with multiple sclerosis (Hastings, 1996). The parental DAP.3 murine fibroblast cell line was used for transfection of DR(α,β1*1301) or DR((α,β*1501) as previously described (a gift of C. Hurley and R. Rosen-Bronson)) ([Hurley, 1995), [Posch, 1995), [Rosen-Bronson, 1991). All cells lines were maintained in DMEM supplemented with 10% fetal calf serum, 50 U/ml penicillin G, 50 μg/ml streptomycin, 1 mM sodium pyruvate, 2 mM glutamine, and 10 mM HEPES buffer (all Gibco/BRL, Gaithersburg, Md.). TCR- and HLA-transfectants were expanded using 1 mg/ml G418 (Gibco/BRL), or 1 mg/ml G418 and 1 mg/ml hygromycin (Calbiochem, San Diego, Calif.), respectively.
Cells were washed and resuspended in DMEM complete medium without antibodies. […] IL-2 cytokine concentrations (pg/ml) of supernatants were measured by ELISA (Genzyme, Cambridge, Mass.) according to the manufacturer's instructions.
The activity of compounds identified by MCDOCK in functional assays that measure inhibition of IL-2 secretion by DR1301 and DR1501-restricted TCR transfectants using compound #105 and several other compounds was evaluated. […] IL-2 concentration of the supernatants was then analyzed by ELISA.

Row | specificity for DR-1301 as compared with DR-1501, by inhibitory effect on IL-2 secretion (HLA-DR1301 [2]; listed as #6) | inhibition of IL-2 secretion / blocking of antigen presentation by DR-1301 (HLA-DR1301 [2]; listed as lead compound #105) | reversal of inhibition of IL-2 production by increasing MBP 152-165 peptide concentration (HLA-DR1301 [2]; MBP 0 to 1200 micrograms/ml, DR1301-restricted TCR transfectants) | inhibition of IL-2 secretion / blocking of antigen presentation by DR-1501 (HLA-DR1501) | Compound | competition with biotinylated MBP peptide for binding to DR1301 (HLA-DR1301 [1]) | specificity for DR-1301 as compared with DR-1501, by inhibitory effect on IL-2 secretion (HLA-DR1301 [2]) | inhibition of IL-2 secretion / blocking of antigen presentation by DR-1301 (HLA-DR1301 [2])
1 | greater specificity for DR1301 than #105 |  |  |  | O=C(CNc1ccc(Cl)cc1Cl)NC1C=Cc2ccc(S(=O)(=O)Nc3ccc(Cl)cc3Cl)cc2C1=O (stereo not drawn) [analog #6, 2-[(2,4-dichlorophenyl)amino]-N-(7-{[(2,4-dichlorophenyl)amino]sulfonyl}-1-oxo(2-2-hydronaphthyl))acetamide] | specific binding of the compound to HLA-DR1301; also recorded: specifically competes with MBP peptide for binding to purified DR1301 molecules | greater degree of specificity for DR-1301 as compared with DR-1501 | 
2 |  |  |  |  | COc1ccc(NS(=O)(=O)c2ccc3ncn(NS(=O)(=O)c4ccc(I)cc4)c(=O)c3c2)cc1 [analog #14, 3-{[(4-iodophenyl)sulfonyl]amino}-6-{[(4-methoxyphenyl)amino]sulfonyl}-3-hydroquinazolin-4-one] |  |  | inactive
3 |  | significant effect | best dose-response curves | weaker inhibition | CC(=O)Nc1ccc(NCC(=O)Nn2cnc3ccc(S(=O)(=O)Nc4ccc(NC(C)=O)cc4)cc3c2=O)cc1 [compound #105, 2-{[4-(acetylamino)phenyl]amino}-N-[6-({[4-(acetylamino)phenyl]amino}sulfonyl)-4-oxo(3-hydroquinazolin-3-yl)]acetamide] |  | most effective in discriminating | strong inhibition
